Experiments:
[1] = system: melatonin receptors; conditions: literature (Depreux et al. 1994); cited from earlier work
[2] = system: cryopreserved hepatocytes from rats (Sprague-Dawley males); assay: Intrinsic clearance in cryopreserved rat hepatocytes; type: in vitro ADME; conditions: 37° C.
Protocol: (§1) Cryopreserved hepatocytes from humans, rats (Sprague-Dawley males) and from mice (CD-1 males) were used for incubation at different times (0, 0.5, 1, 1.5, 2 hours) at 37° C. followed by HPLC-MS/MS detection. The aim was to verify the clearance time of the test substance on hepatocytes. The experiment was performed on a 96-well plate and the cryopreserved hepatocytes were thawed and resuspended in Krebs-Heinslet buffer (pH 7.3). The reaction was started by adding each test compound to each cell suspension and performing the incubation at the times indicated above. The reaction was quenched with addition of acetonitrile in the wells and detection by HPLC-MS/MS (mass spectrometry). MS/MS is performed by combining two mass detectors into a single instrument.

[3] = Pharmacokinetics in CD-1 mouse, I.V. and oral; type: in vivo; conditions: intravenous
Protocol: PK tests were performed with CD-1 mice, using 4 animals per molecule tested, 2 animals for pharmacokinetic analysis by intravenous (IV) administration and 2 animals for oral administration. The treatment was carried out in a single dose: I.V. group with dose of 1 mg/kg and Oral group with dose of 10 mg/kg. […] Blood collection was performed after euthanasia at 08 defined time points and at 24 hours post-dose. The pharmacokinetic analysis parameters detected for Group IV were: half-life (t½), drug concentration at time zero (C0), last measurable plasma concentration (AUClast), area under the plasma concentration curve extrapolation percentage (AUC % ext), area under the plasma concentration curve extrapolation to infinity (AUCinf), volume of distribution (Vz), steady state volume of distribution (Vss), clearance (CL) and mean residence time (MRT). The parameters evaluated for the Oral group were: bioavailability (F %), maximum concentration reached (Cmax), time to reach maximum plasma concentration (Tmax), last measurable plasma concentration (AUClast), area under the plasma concentration curve extrapolation percentage (AUC % ext), area under the plasma concentration curve extrapolation to infinity (AUCinf), area under the plasma concentration curve extrapolation to infinity versus dose (AUCinf/Dose), half-Life (t½), and mean residence time (MRT).

[4] = system: cryopreserved human hepatocytes; assay: Intrinsic clearance in cryopreserved human hepatocytes; type: in vitro ADME; conditions: 37° C.
Protocol: as §1

[5] = system: cryopreserved hepatocytes from mice (CD-1 males); assay: Intrinsic clearance in cryopreserved mouse hepatocytes; type: in vitro ADME; conditions: 37° C.
Protocol: as §1

[6] = biological target: MT2 receptor (Homo sapiens (Human), UniProt P49286); assay: MT2 functional assay; type: cell-based
[7] = biological target: T1, CYP1A2 (Homo sapiens (Human), UniProt P05177); assay: CYP inhibition, fluorogenic substrate; type: in vitro ADME
Description: The CYP inhibition test used fluorogenic substrates specific to each CYP to check for inhibition thereof by detection of the expected metabolite using a fluorimetric method. Recombinant CYPs (CYP2B6, CYP2C8, CYP2C9, CYP2C9, CYP2C19, CYP2D6, CYP3A4) from specific humans for each cytochrome family, subfamily and polypeptide were used. The following were used as substrates: CEC (3-Cyano-7-Ethoxycoumarin) which forms as metabolite CHC (3-Cyano-7-Hydroxycoumarin); EFC (7-Ethoxy-4-trifluoromethyl coumarin), forming the metabolite HFC (7-Hydroxytrifluoromethylcoumarin); DBF (Dibenzylfluorescein) and its respective fluorescein metabolite; MFC (7-Methoxy-4-trifluoromethylcoumarin) which forms the metabolite HFC (7-Hydroxytrifluoromethylcoumarin); BFC (7-Benzyloxy-Trifluoromethylcoumarin) and its metabolite HFC; and BzRes (benzyloxyresorufin) to form resofurine. The detection of the metabolite was done with a fluorimetric method: analytical technique to identify and characterize the amount of substance by excitation using a beam of ultraviolet light and measurement of the emitted fluorescence. For detection, a 96-well plate was used. […] Incubations were performed between 20-50 minutes at 37° C. according to the specific parameter of each fluorogenic substrate, for the evaluated component. Fluorescence at each well was detected before and after the incubation period.

[8] = system: CYP2C9 and CYP2C19; conditions: cited from earlier work
[9] = biological target: T1, CYP1A2; conditions: cited from earlier work
[10] = biological target: MT1 receptor (Homo sapiens (Human), UniProt P48039); assay: MT1 functional assay
MT1 receptor, sequence (P48039 whole entry): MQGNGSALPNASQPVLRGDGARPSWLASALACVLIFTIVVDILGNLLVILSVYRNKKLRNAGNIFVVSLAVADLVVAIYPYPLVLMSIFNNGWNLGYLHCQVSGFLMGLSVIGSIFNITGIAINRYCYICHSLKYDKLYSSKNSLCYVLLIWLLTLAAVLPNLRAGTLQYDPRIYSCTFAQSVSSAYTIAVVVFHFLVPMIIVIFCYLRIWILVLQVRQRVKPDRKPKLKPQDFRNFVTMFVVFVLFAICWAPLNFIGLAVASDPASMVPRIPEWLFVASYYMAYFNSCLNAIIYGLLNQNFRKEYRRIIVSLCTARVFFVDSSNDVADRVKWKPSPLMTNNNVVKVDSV

T1 sequence (P05177 whole entry): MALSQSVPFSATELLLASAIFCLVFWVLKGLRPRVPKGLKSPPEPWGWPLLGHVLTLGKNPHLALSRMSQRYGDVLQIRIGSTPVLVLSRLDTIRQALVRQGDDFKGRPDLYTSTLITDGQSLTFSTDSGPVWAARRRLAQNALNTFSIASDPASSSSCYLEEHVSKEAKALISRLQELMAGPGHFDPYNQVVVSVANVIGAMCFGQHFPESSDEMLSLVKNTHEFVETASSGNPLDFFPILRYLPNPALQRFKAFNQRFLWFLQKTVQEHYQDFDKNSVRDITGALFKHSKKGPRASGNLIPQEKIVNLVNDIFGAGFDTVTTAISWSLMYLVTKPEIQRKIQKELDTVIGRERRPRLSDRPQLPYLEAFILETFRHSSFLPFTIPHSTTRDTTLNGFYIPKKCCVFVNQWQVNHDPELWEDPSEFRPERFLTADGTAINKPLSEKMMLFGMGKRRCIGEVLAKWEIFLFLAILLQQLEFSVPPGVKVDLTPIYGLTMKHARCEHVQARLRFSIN
MT2 receptor, sequence (P49286 whole entry): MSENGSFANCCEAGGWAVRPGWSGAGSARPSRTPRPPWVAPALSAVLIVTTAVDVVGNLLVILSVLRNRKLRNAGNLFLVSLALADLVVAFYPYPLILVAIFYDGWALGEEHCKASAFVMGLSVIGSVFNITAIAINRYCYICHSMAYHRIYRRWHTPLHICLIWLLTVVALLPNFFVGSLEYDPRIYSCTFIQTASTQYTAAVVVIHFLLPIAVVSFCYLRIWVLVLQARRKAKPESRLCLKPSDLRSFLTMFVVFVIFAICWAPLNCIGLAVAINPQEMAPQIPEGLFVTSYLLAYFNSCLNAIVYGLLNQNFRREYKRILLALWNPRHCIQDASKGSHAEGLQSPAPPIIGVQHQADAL

| SMILES | affinity lower than melatonin affinity [1] | Intrinsic clearance half-life, Rat Sprague-Dawley hepatocytes [2] [h] | C0 compared to agomelatine [3] | Clearance compared to agomelatine [3] | Intrinsic clearance half-life, Human hepatocytes [4] [h] | Intrinsic clearance half-life, Mouse CD-1 hepatocytes [5] [h] | intrinsic activity at MT2 [6] | affinity to CYP isoforms, specially CYP1A2 [7] | fraction metabolized by CYP2C9 and CYP2C19 [8] [%] | fraction metabolized in the liver by CYP1A2 [9] | intrinsic activity at MT1 [10] |
| --- | --- | --- | --- | --- | --- | --- | --- | --- | --- | --- | --- |
| COc1ccc2ncn(CCNC(C)=O)c2c1 [N-[2-(6-methoxybenzimidazol-1-yl)-ethyl]acetamide] | approximately 3,200 times | – | – | – | – | – | – | – | – | – | – |
| COc1cc2c(cc1Cl)nc(OC)n2CCNC(C)=O [IA2-143] | – | 1.8 | higher | lower | – | – | – | – | – | – | – |
| CCOc1nc2cc(Cl)c(OC)cc2n1CCCNC(C)=O [IA2-142] | – | >2 | higher | lower | >2 | >2 | – | – | – | – | – |
| CCOc1nc2ccc(OC)cc2n1CCCNC(C)=O [IA2-120] | – | 0.883 | higher | lower | >2 | >2 | – | – | – | – | – |
| COc1ccc2cccc(CCNC(C)=O)c2c1 [IA2-76 (agomelatine), agomelatine] | – | 0.833 | – | – | 0.8 | 0.417 | agonist | high affinity | 10 | Around 90% | agonist |
| CCOc1nc2cc(Cl)c(OC)cc2n1CCNC(C)=O [IA2-121] | – | 0.867 | higher | lower | >2 | >2 | – | – | – | – | – |
